# Measurements taken from patent publication US4575504A, “Thienothiazole derivatives” (Dr. Karl Thomae GmbH, priority 1982, dated 1986).
# Structures can show the parent of a compound that is named as a salt.
# How the values were obtained:
# [1] = Acute toxicity in mice after oral or intravenous administration; settings: mouse, in vivo, observation period 14 days
# Procedure: The acute toxicity was determined in mice after oral or intravenous administration (observation period: 14 days): […]
# [2] = system: postsynaptic α-adrenoceptors; assay: Effect on postsynaptic α-adrenoceptors: increase in blood pressure in the spinal rat; type: in vivo; settings: dosage which increased arterial blood pressure by 30 mmHg, i.v.
# Procedure: 3. Effect on postsynaptic α-adrenoceptors: Increase in blood pressure in the spinal rat Method: The increase in blood pressure occurring after the stimulation of postsynaptic α-adrenoreceptors is measured in the spinal rat. Description of test: Male rats weighing from 200 to 250 g were anesthetized (1.2 g/kg of urethane i.p., 1 mg/kg of atropine s.c.). Then the central canal of the spinal cord was opened up. The spinal cord was severed at C1, and the medulla oblongata and the brain were destroyed with a metal probe. The animals were artificially ventilated; a polyethylene catheter was secured in a jugular vein, and the blood pressure was recorded from an A. carotis by means of a Statham element on a Grass polygraph. The dosage (D30) which increased the arterial blood pressure by 30 mmHg was determined.
# [3] = system: presynaptic α-adrenoceptors; assay: Effect on presynaptic α-adrenoceptors: inhibition of electrically triggered tachycardia in the spinal rat; type: in vivo; settings: dosage which inhibits electrically induced tachycardia by 50%, i.v.
# Excerpt: 2. Effect on presynaptic α-adrenoceptors: Inhibition of electrically triggered tachycardia Method: At the adrenergic nerve ending there is an autoregulating system for the relase of noradrenaline. The stimulation of presynaptic α-adrenoreceptors has an inhibiting effect on the release of noradrenaline and thus restricts adrenergic neurotransmission. Accordingly, if these "feedback receptors" are stimulated, the effect of a given adrenergic stimulation on the responding organ can be attenuated. In the electrically stimulated spinal rat, the tachycardia induced electrically in the heart is attenuated by substances with a presynaptic α-mimetic activity. Description of the test: Male rats weighing from 350 to 400 g were anesthetized with pentobarbital (50 mg/kg i.p.), vagotomized, treated with atropine (1 mg/kg s.c.) and fitted with a tracheal cannula. After enucleation of one eye, the orbits were pierced, the brain was destroyed, and a metal rod was pushed through the vertebral canal. The animals were artificially ventilated and pre-treated with gallamine (4 mg/kg i.v.). The metal rod used was 2.5 mm in diameter and was insulated (stove-enamelled). […] The blood pressure was measured at an A. carotis by means of an electromechanical pressure transducer. The pulse wave triggered a tachograph which continuously recorded the heart rate. Both signals were recorded on a multi-channel recorder.
# intact anesthetized rat [4] = assay: Effect on blood pressure and heart rate in the intact anesthetized rat after intravenous injection; type: in vivo; settings: 3 mg/kg i.v.
# Procedure: 1. Effect on blood pressure and heart rate Method: Changes in circulation after intravenous injection of the test substance were recorded in the intact anesthetized rat. Male rats weighing 200 g were anesthetized with pentobarbital (50 mg/kg i.p.). The animals breathed spontaneously through a tracheal cannula secured in position. The blood pressure was measured at an A. carotis using an electromechanical pressure transducer; the pulse wave triggered a tachograph which recorded the heart rate continuously. Both parameters were recorded on the polygraph. The test substance was injected into a V. jugularis through a catheter. The test substances, when administered at a dosage of 3 mg/kg i.v., produced a brief initial increase in blood pressure followed by a longer-lasting reduction in pressure.
# intact anesthetized rat [5] = assay: as above; type: in vivo; settings: 1.5 mg/kg i.v.
smiles,measurement,setting,value
"CCN1CCc2sc3nc(N)sc3c2CC1.Cl.Cl [A, 7-ethyl-2-amino-6,7,8,9-tetrahydro-5H-thiazolo[4',5':5,4]thieno[2,3-d]azepine dihydrochloride]",LD50 at 336 h,[1]; intravenous,34 mg/kg
same,LD50 at 336 h,[1]; oral,320 mg/kg
same,"Blood pressure-increasing activity, D30",[2],145 μg/kg i.v.
same,"Inhibition of electrically induced tachycardia, D50",[3],290 μg/kg i.v.
same,"Blood pressure, depressor phase (maximum value)",intact anesthetized rat [4],-18 mm Hg
same,"Blood pressure, pressor phase (maximum value)",intact anesthetized rat [4],+52 mm Hg
same,Lowering of heart rate (maximum value),intact anesthetized rat [4],-90 beats/minute
"Nc1nc2sc3c(c2s1)CCN(Cc1ccccc1)CC3 [B, 2-amino-7-benzyl-6,7,8,9-tetrahydro-5H-thiazolo[4',5':5,4]thieno[2,3d]azepine]","Blood pressure, depressor phase (maximum value)",intact anesthetized rat [4],-25 mm Hg
same,Lowering of heart rate (maximum value),intact anesthetized rat [4],-95 beats/minute
"C=CCN1CCc2sc3nc(N)sc3c2CC1.Cl.Cl [C, 7-allyl-2-amino-6,7,8,9-tetrahydro-5H-thiazolo[4',5':5,4]thieno[2,3-d]azepine dihydrochloride]","Blood pressure, depressor phase (maximum value)",intact anesthetized rat [4],-15 mm Hg
same,"Blood pressure, pressor phase (maximum value)",intact anesthetized rat [4],+17 mm Hg
same,Lowering of heart rate (maximum value),intact anesthetized rat [4],-150 beats/minute
"CC(C)N1CCc2sc3nc(N)sc3c2CC1.Cl.Cl [Compound D, 2-amino-6,7,8,9-tetrahydro-7-isopropyl-5H-thiazolo[4',5':5,4]thieno[2,3-d]azepine dihydrochloride]","Blood pressure, depressor phase (maximum value)",intact anesthetized rat [4],-20 mm Hg
same,"Blood pressure, pressor phase (maximum value)",intact anesthetized rat [4],+23 mm Hg
same,Lowering of heart rate (maximum value),intact anesthetized rat [4],-78 beats/minute
"CCN1CCc2c(sc3nc(N)sc23)C1 [E, 6-ethyl-2-amino-5,6,7,8-tetrahydro-thiazolo[4',5':5,4]thieno[2,3c]pyridine dihydrochloride]","Blood pressure, depressor phase (maximum value)",intact anesthetized rat [4],-29 mm Hg
same,"Blood pressure, pressor phase (maximum value)",intact anesthetized rat [4],+30 mm Hg
same,Lowering of heart rate (maximum value),intact anesthetized rat [4],-108 beats/minute
"CCCN1CCc2c(sc3nc(N)sc23)C1.Cl.Cl [F, 2-amino-5,6,7,8-tetrahydro-6-propyl-thiazolo[4',5':5,4]thieno[2,3-c]pyridine dihydrochloride]",LD50 at 336 h,[1]; oral,> 300 mg/kg
same,"Blood pressure, depressor phase (maximum value)",intact anesthetized rat [4],-12 mm Hg
same,"Blood pressure, pressor phase (maximum value)",intact anesthetized rat [4],+16 mm Hg
same,Lowering of heart rate (maximum value),intact anesthetized rat [4],-65 beats/minute
"CN1CCc2c(sc3nc(N)sc23)C1.Cl.Cl [G, 2-amino-5,6,7,8-tetrahydro-6-methyl-thiazolo[4',5':5,4]thieno[2,3-c]pyridine dihydrochloride]","Blood pressure, depressor phase (maximum value)",intact anesthetized rat [4],-30 mm Hg
same,"Blood pressure, pressor phase (maximum value)",intact anesthetized rat [4],+46 mm Hg
same,Lowering of heart rate (maximum value),intact anesthetized rat [4],-95 beats/minute
"Cl.Cl.Nc1nc2sc3c(c2s1)CCNCC3 [H, 2-Amino-6,7,8,9-tetrahydro-5H-thiazolo[4',5':5,4]thieno[2,3-d]azepine dihydrochloride]","Blood pressure-increasing activity, D30",[2],0.36 mg/kg i.v.
same,"Blood pressure, depressor phase (maximum value)",intact anesthetized rat [5],-34 mm Hg
same,"Blood pressure, pressor phase (maximum value)",intact anesthetized rat [5],+38 mm Hg
same,Lowering of heart rate (maximum value),intact anesthetized rat [5],-100 beats/minute
